According to patent US20250206759A1, “FUSED RING COMPOUND, PHARMACEUTICAL COMPOSITION CONTAINING SAME, AND USE OF FUSED RING COMPOUND” (CHENGDU HYPERWAY PHARMACEUTICALS CO., LTD., priority 2022, published 2025):
Like-named read-outs stand apart in the source and are kept apart here. One block for each compound: values may come before it.

Columns and labels:
[1] = test system: KRas G12D-mediated ERK phosphorylation; assay: Inhibition of KRas G12D-mediated ERK phosphorylation in AGS cells; type: cell-based; conditions: read-out: AGS-pERK IC50
Experimental: Day 1: AGS cells were seeded into 384-well cell culture plates and cultured overnight in a 37° C., 5% CO2 incubator.
Day 2: The compounds were added to the plates using Echo550 and incubated for 3 h in a 37° C., 5% CO2 incubator. Then cells were fixed with paraformaldehyde, permeated with methanol, and blocked with the blocking solution. Finally, a mixed solution of primary antibodies (rabbit anti pERK, mouse anti GAPDH) was added, and the mixture was incubated at 4° C. overnight.
Day 3: The mixed solution of primary antibodies was discarded, and a mixed solution of secondary antibodies (goat anti rabbit 800CW, goat anti mouse 680RD) was added. The mixture was incubated at room temperature in the dark. Finally, the cell culture plate was washed with PBST, and then inverted for 1 minute of centrifugation. The fluorescence signal values were read with Odyssey CLx.
ERK phosphorylation was calculated according to the following formula: […]
X: log value of compound concentration.
Y: average value of relative expression of p-ERK between replicate wells.

[2] = Pharmacokinetics of compounds in rats (oral); type: in vivo, SD rats; conditions: male SD rats
Experimental: Male SD rats were purchased from Shanghai SIPPR-Bk Lab Animal Co., Ltd. Each test compound was administered orally (3 rats per group) once to SD rats for pharmacokinetic study. The test compounds were prepared on the day of administration. The test compounds were suspended in 5% DMSO+95% saline, and then vortexed for 2 min and ultrasonicated for 5 min to prepare the administration system. The animals were fasted for 10-14 h before oral administration, and the feeding was resumed 4 h after administration. After oral administration by gavage, pharmacokinetic samples were collected from SD rats through the jugular vein. The collection time points were: before administration, 15 min, 30 min, 1 h, 2 h, 4 h, 6 h, 8 h and 24 h after administration. Three whole blood samples were collected at each time point, with a collection volume of about 0.2 mL, and anticoagulated with sodium heparin. After blood samples were collected, they were immediately placed on ice and centrifuged to separate plasma within 1 hour (centrifugation conditions: 6800 rpm, 6 min, 2-8° C.). The collected plasma was stored in a −80° C. refrigerator before analysis.

[3] = male, SD, rat, plasma, po, 100 mg/kg, 100 mg/kg, read-out: AUC
[4] = male, SD, rat, plasma, po, 100 mg/kg, 100 mg/kg, read-out: Cmax
[5] = male, SD, rat, plasma, po, 10 mg/kg, 10 mg/kg, read-out: AUC
[6] = male, SD, rat, plasma, po, 10 mg/kg, 10 mg/kg, read-out: Cmax

IC50 [1]: 12 nM
Compound: 4-(4-((1R,5S)-3,8-diazabicyclo[3.2.1]octan-3-yl)-2-((3-(1,3-dihydroisobenzofuran-5-yl-1,1,3,3-d4)tetrahydro-1H-pyrrolizin-7a(5H)-yl)methoxy)-8-fluoropyridin[4,3-d]pyrimidin-7-yl)naphthalen-2-ol [Example 148]

Compound: Cc1ccc([C@H]2CCC3(COc4nc(N5CC6CCC(C5)N6)c5cnc(-c6cc(O)cc7ccc(F)c(F)c67)c(F)c5n4)CCCN23)cc1 (mixture of isomers) [Example 213]
IC50 ([1]; Homo sapiens, AGS): 1.8 nM

Compound: C#Cc1c(F)ccc2cc(O)cc(-c3ncc4c(N5CC6CCC(C5)N6)nc(OCC56CCCN5[C@@H](c5ccc(OC(F)(F)F)cc5)CC6)nc4c3F)c12 (mixture of isomers) [Example 214]
IC50 ([1]; Homo sapiens, AGS): 1 nM

Compound: Oc1cc(-c2ncc3c(N4CC5CCC(C4)N5)nc(OCC45CCCN4[C@@H](c4ccc(C(F)(F)F)c(Cl)c4)CC5)nc3c2F)c2c(F)c(F)ccc2c1 (mixture of isomers) [Example 215]
AUC [2, 3]: 471 ng·h/mL
Cmax [2, 4]: 128 ng/mL

Compound: Oc1cc(-c2ncc3c(N4CC5CCC(C4)N5)nc(OCC45CCCN4[C@@H](c4ccc6c(c4)COC6)CC5)nc3c2F)c2c(F)c(F)ccc2c1 (mixture of isomers) [Example 217]
IC50 ([1]; Homo sapiens, AGS): 1.3 nM

Compound: Oc1cc(-c2ncc3c(N4CC5CCC(C4)N5)nc(OCC45CCCN4[C@@H](c4ccc6ccccc6c4)CC5)nc3c2F)c2c(F)c(F)ccc2c1 (mixture of isomers) [Example 218]
IC50 ([1]; Homo sapiens, AGS): 2.4 nM

Compound: Oc1cc(-c2ncc3c(N4CC5CCC(C4)N5)nc(OCC45CCCN4[C@@H](c4ccc(C(F)(F)F)c(C(F)(F)F)c4)CC5)nc3c2F)c2c(F)c(F)ccc2c1 (mixture of isomers) [Example 219]
IC50 ([1]; Homo sapiens, AGS): 6.2 nM

Compound: Oc1cc(-c2ncc3c(N4CC5CCC(C4)N5)nc(OCC45CCCN4[C@@H](c4ccc(F)c(F)c4)CC5)nc3c2F)c2c(F)c(F)ccc2c1 (mixture of isomers) [Example 224]
IC50 ([1]; Homo sapiens, AGS): 0.7 nM

Compound: COc1cc([C@H]2CCC3(COc4nc(N5CC6CCC(C5)N6)c5cnc(-c6cc(O)cc7ccc(F)c(F)c67)c(F)c5n4)CCCN23)ccc1C(F)(F)F (mixture of isomers) [Example 228]
IC50 ([1]; Homo sapiens, AGS): 1.9 nM

Compound: Nc1ccc(C(F)(F)F)c(-c2ncc3c(N4CC5CCC(C4)N5)nc(OCC45CCCN4[C@@H](c4ccc6c(c4)OC(F)(F)O6)CC5)nc3c2F)c1 (mixture of isomers) [Example 234]
AUC [2, 3]: 1190 ng·h/mL
Cmax [2, 4]: 182 ng/mL

Compound: Cc1cc(N)cc(-c2ncc3c(N4CC5CCC(C4)N5)nc(OCC45CCCN4[C@@H](c4ccc6c(c4)OC(F)(F)O6)CC5)nc3c2F)c1C(F)(F)F (mixture of isomers) [Example 235]
IC50 ([1]; Homo sapiens, AGS): 13 nM

Compound: Oc1cc(-c2ncc3c(N4CC5CCC(C4)N5)nc(OCC45CCCN4[C@@H](c4ccc(F)cc4)CC5)nc3c2F)c2c(F)c(F)ccc2c1 (single isomer, unassigned) [Example 193]
IC50 ([1]; Homo sapiens, AGS): 9.1 nM

Compound: C#Cc1c(F)ccc2cc(O)cc(-c3ncc4c(N5CC6CCC(C5)N6)nc(OCC56CCCN5[C@@H](c5ccc(F)cc5)CC6)nc4c3F)c12 (single isomer, unassigned) [Example 196]
IC50 ([1]; Homo sapiens, AGS): 1.4 nM

Compound: Oc1cc(-c2ncc3c(N4CC5CCC(C4)N5)nc(OCC45CCCN4[C@@H](c4ccc(C(F)(F)F)cc4)CC5)nc3c2F)c2c(F)c(F)ccc2c1 (single isomer, unassigned) [Example 202]
IC50 ([1]; Homo sapiens, AGS): 1.8 nM

Compound: C#Cc1c(F)ccc2cc(O)cc(-c3ncc4c(N5CC6CCC(C5)N6)nc(OCC56CCCN5[C@@H](c5ccc(C(F)(F)F)cc5)CC6)nc4c3F)c12 (single isomer, unassigned) [Example 204]
IC50 ([1]; Homo sapiens, AGS): 0.78 nM

AUC ([2]; 10 mg/kg): 94 ng·h/mL
Cmax ([2]; 10 mg/kg): 21 ng/mL
Compound: Oc1cc(-c2ncc3c(N4C[C@H]5CC[C@@H](C4)N5)nc(OCC45CCCN4C(c4ccc(C6=CCOCC6)cc4)CC5)nc3c2F)c2ccccc2c1 (stereo partly drawn) [Example 45, 4-(4-((1R,5S)-3,8-diazabicyclo[3.2.1]octan-3-yl)-2-((3-(4-(3,6-dihydro-2H-pyran-4-yl)phenyl)tetrahydro-1H-pyrrolidin-7a(5H)-yl)methoxy)-8-fluoropyrido[4,3-d]pyrimidin-7-yl)naphthalen-2-ol]

IC50 [1]: 6 nM
Compound: C#Cc1c(F)ccc2cc(O)cc(-c3ncc4c(N5C[C@H]6CC[C@@H](C5)N6)nc(OCC56CCCN5C(c5ccc(OC)cc5)CC6)nc4c3F)c12 (stereo partly drawn) [Example 52, 4-(4-((1R,5S)-3,8-diazabicyclo[3.2.1]octan-3-yl)-8-fluoro-2-((3-(4-methoxyphenyl)tetrahydro-1H-pyrrolidin-7a(5H)-yl)methoxy)pyrido[4,3-d]pyrimidin-7-yl)-5-ethynyl-6-fluoronaphthalen-2-ol]

AUC [2, 5]: 52 ng·h/mL
Cmax [2, 6]: 21 ng/mL
Compound: Oc1cc(-c2ncc3c(N4CC5CCC(C4)C5(F)F)nc(OC[C@@]45CCCN4C[C@H](F)C5)nc3c2F)c2c(F)c(F)ccc2c1 [Example 86]

Compound: Oc1cc(-c2ncc3c(N4CC5CCC(C4)N5)nc(OCC45CCCN4C(c4cccc(F)c4)CC5)nc3c2F)c2c(F)c(F)ccc2c1 (centres unmarked) [Example 110]
IC50 ([1]; Homo sapiens, AGS): 35 nM

Compound: COc1ccc(C2CCC3(COc4nc(N5CC6CCC(C5)N6)c5cnc(-c6cc(O)cc7ccc(F)c(F)c67)c(F)c5n4)CCCN23)cc1OC (centres unmarked) [Example 113]
IC50 ([1]; Homo sapiens, AGS): 15 nM

Compound: Oc1cc(-c2ncc3c(N4CC5CCC(C4)N5)nc(OCC45CCCN4C(c4ccc6c(c4)OCO6)CC5)nc3c2F)c2c(F)c(F)ccc2c1 (centres unmarked) [Example 114]
IC50 ([1]; Homo sapiens, AGS): 14 nM

Compound: Oc1cc(-c2ncc3c(N4CC5CCC(C4)N5)nc(OCC45CCCN4C(c4ccc(OC(F)(F)F)cc4)CC5)nc3c2F)c2ccccc2c1 (centres unmarked) [Example 118]
AUC [2, 5]: 224 ng·h/mL
Cmax [2, 6]: 31 ng/mL
AUC [2, 3]: 1290 ng·h/mL
Cmax [2, 4]: 115 ng/mL

Compound: Oc1cc(-c2ncc3c(N4CC5CCC(C4)N5)nc(OCC45CCCN4C(c4ccc6occc6c4)CC5)nc3c2F)c2ccccc2c1 (centres unmarked) [Example 131]
AUC [2, 5]: 57 ng·h/mL
Cmax [2, 6]: 13 ng/mL

Compound: Oc1cc(-c2ncc3c(N4CC5CCC(C4)N5)nc(OCC45CCCN4C(c4ccc6c(c4)OC(F)(F)O6)CC5)nc3c2F)c2ccccc2c1 (centres unmarked) [Example 132]
AUC [2, 5]: 240 ng·h/mL
Cmax [2, 6]: 29 ng/mL

AUC ([2]; 100 mg/kg): 444 ng·h/mL
Cmax ([2]; 100 mg/kg): 113 ng/mL
Compound: Oc1cc(-c2ncc3c(N4C[C@H]5CC[C@@H](C4)N5)nc(OCC45CCCN4C(c4ccc6c(c4)OC(F)(F)O6)CC5)nc3c2F)c2c(F)c(F)ccc2c1 (stereo partly drawn) [Example 140, 4-(4-((1R,5S)-3,8-diazabicyclo[3.2.1]octan-3-yl)-2-((3-(2,2-difluorobenzo[d][1,3]dioxy-5-yl)tetrahydro-1H-pyrrolizin-7a(5H)-yl)methoxy)-8-fluoropyridin[4,3d]pyrimidin-7-yl)-5,6-difluoronaphthalen-2-ol]

AUC ([2]; 10 mg/kg): 410 ng·h/mL
Cmax ([2]; 10 mg/kg): 32 ng/mL
Compound: Oc1cc(-c2ncc3c(N4C[C@H]5CC[C@@H](C4)N5)nc(OCC45CCC(c6ccc(OC(F)(F)F)cc6)N4CC4(CC4)C5)nc3c2F)c2ccccc2c1 (stereo partly drawn) [Example 143, 4-(4-((1R,5S)-3,8-diazabicyclo[3.2.1]octan-3-yl)-8-fluoro-2-((5′-(4-(trifluoromethoxy)phenyl)dihydro-1′H,3′H-spiro[cyclopropan-1,2′-pyrrolizin]-7a′(5′H)-yl)methoxy]pyrido[4,3d]pyrimidin-7-yl)naphthalen-2-ol]

Compound: Nc1ccc(OC(F)(F)F)c(-c2ncc3c(N4CC5CCC(C4)N5)nc(OC[C@]45CCCN4C(c4ccc6c(c4)OC(F)(F)O6)CC5)nc3c2F)c1 (stereo partly drawn) [Example 163, 3-(4-((1R,5S)-3,8-diazabicyclo[3.2.1]octan-3-yl)-2-((3-(2,2-difluorobenzo[d][1,3]dioxy-5-yl)tetrahydro-1H-pyrrolizin-7a(5H)-yl)methoxy)-8-fluoropyridin[4,3d]pyrimidin-7-yl)-4-(trifluoromethoxy)]
AUC [2, 3]: 2750 ng·h/mL
Cmax [2, 4]: 388 ng/mL

Compound: Oc1cc(-c2ncc3c(N4CC5CCC(C4)N5)nc(OCC45CCCN4C(c4ccc(C(F)(F)F)cc4)CC5)nc3c2F)c2ccccc2c1 (centres unmarked) [Example 170]
AUC [2, 5]: 533 ng·h/mL
Cmax [2, 6]: 39 ng/mL

Compound: Oc1cc(-c2ncc3c(N4CC5CCC(C4)N5)nc(OCC45CCCN4C(c4ccc(-c6ccc(F)cc6)cc4)CC5)nc3c2F)c2c(F)c(F)ccc2c1 (centres unmarked) [Example 190]
AUC [2, 3]: 939 ng·h/mL
Cmax [2, 4]: 66 ng/mL

Compound: Oc1cc(-c2ncc3c(N4CC5CCC(C4)N5)nc(OCC45CCCN4C(c4ccc(OC(F)(F)F)cc4)CC5)nc3c2F)c2c(F)c(F)ccc2c1 (centres unmarked) [Example 210]
AUC [2, 3]: 246 ng·h/mL
Cmax [2, 4]: 145 ng/mL

Compound: Nc1cc(F)c(C(F)(F)F)c(-c2ncc3c(N4CC5CCC(C4)N5)nc(OCC45CCCN4C(c4ccc6c(c4)OC(F)(F)O6)CC5)nc3c2F)c1 (centres unmarked) [Example 237]
AUC [2, 3]: 1510 ng·h/mL
Cmax [2, 4]: 362 ng/mL
